Source: the NIST ThermoML archive (doi:10.1021/je100104v)

How the values were obtained:
[1] = xn = mol fraction of the nth substance listed; settings: Liquid; for electrical conductivity / viscosity: 101.3 kPa; for electrical conductivity: Eutech Cyberscan Con 11; for mass density: 101 kPa
[2] = refractive index (Na D-line) (dimensionless); xn = mol fraction of the nth substance listed; settings: 101.3 kPa, Liquid, Standard Abbe refractometry

NC(=O)C(F)(F)F [2,2,2-trifluoroacetamide] + C[P+](c1ccccc1)(c1ccccc1)c1ccccc1.[Br-]
Settings | electrical conductivity, [1] [S/m] | mass density, [1] [kg/m3] | refractive index, [2] | viscosity, [1] [mPa·s]
278.1 K, x2 = 0.111 | 0.0134 | – | – | 657.7
288.15 K, x1 = 0.111 | – | – | 1.4913 | –
288.15 K, x2 = 0.111 | 0.0351 | – | – | 405.9
298.15 K, x1 = 0.111 | – | – | 1.4849 | –
298.15 K, x2 = 0.111 | 0.0848 | 1394.7 | – | 136.5
308.15 K, x1 = 0.111 | – | – | 1.4824 | –
308.15 K, x2 = 0.111 | 0.182 | 1383.7 | – | 71.3
318.15 K, x1 = 0.111 | – | – | 1.4782 | –
318.15 K, x2 = 0.111 | 0.282 | 1372.7 | – | 39
328.15 K, x1 = 0.111 | – | – | 1.4745 | –
328.15 K, x2 = 0.111 | 0.349 | 1361.6 | – | 24.1
338.15 K, x1 = 0.111 | – | – | 1.4737 | –
338.15 K, x2 = 0.111 | 0.418 | 1350.4 | – | 16.6
348.15 K, x2 = 0.111 | 0.482 | 1339.3 | – | 11.1
358.15 K, x2 = 0.111 | 0.55 | 1328.2 | – | 0.9
368.15 K, x2 = 0.111 | 0.609 | – | – | –

[Cl-].c1ccc(C[P+](c2ccccc2)(c2ccccc2)c2ccccc2)cc1 [benzyltriphenylphosphonium chloride] + OCC(O)CO
Settings | electrical conductivity, [1] [S/m] | refractive index, [2] | viscosity, [1] [mPa·s]
328.15 K, x1 = 0.167 | – | – | 553.7
328.15 K, x2 = 0.167 | – | 1.5502 | –
338.15 K, x1 = 0.167 | 0.00187 | – | 339.3
338.15 K, x2 = 0.167 | – | 1.5168 | –
348.15 K, x1 = 0.167 | 0.00167 | – | 118.6
358.15 K, x1 = 0.167 | 0.00151 | – | 75.5
368.15 K, x1 = 0.167 | 0.00139 | – | 38.7

[Cl-].c1ccc(C[P+](c2ccccc2)(c2ccccc2)c2ccccc2)cc1 [benzyltriphenylphosphonium chloride] + OCCO
Settings | electrical conductivity, [1] [S/m] | refractive index, [2] | viscosity, [1] [mPa·s]
328.15 K, x1 = 0.25 | 0.0485 | – | 201.9
328.15 K, x2 = 0.25 | – | 1.5258 | –
338.15 K, x1 = 0.25 | 0.0199 | – | 85.5
338.15 K, x2 = 0.25 | – | 1.5309 | –
348.15 K, x1 = 0.25 | 0.00164 | – | 59.3
358.15 K, x1 = 0.25 | 0.00148 | – | 50.5
368.15 K, x1 = 0.25 | 0.00136 | – | 35.9

C[P+](c1ccccc1)(c1ccccc1)c1ccccc1.[Br-] [methyltriphenylphosphonium bromide] + OCC(O)CO
Settings | electrical conductivity [S/m] | mass density [kg/m3] | refractive index | viscosity [mPa·s]
[1], 278.1 K, x1 = 0.3636 | 0.00375 | – | – | –
[1], 288.15 K, x1 = 0.3636 | 0.00826 | – | – | –
[1], 298.15 K, x1 = 0.3636 | 0.0165 | 1289.9 | – | –
[1], 308.15 K, x1 = 0.3636 | 0.0315 | 1283 | – | –
[1], 318.15 K, x1 = 0.3636 | 0.0555 | 1275.9 | – | 887.1
[1], 328.15 K, x1 = 0.3636 | 0.0901 | 1268.8 | – | 414.9
[1], 338.15 K, x1 = 0.3636 | 0.127 | 1261.9 | – | 205.7
[1], 348.15 K, x1 = 0.3636 | 0.182 | 1255 | – | 104.8
[1], 358.15 K, x1 = 0.3636 | 0.242 | 1248 | – | 77.4
[1], 368.15 K, x1 = 0.3636 | 0.315 | – | – | 36.9
[2], 288.15 K, x2 = 0.3636 | – | – | 1.5708 | –
[2], 298.15 K, x2 = 0.3636 | – | – | 1.5666 | –
[2], 308.15 K, x2 = 0.3636 | – | – | 1.5656 | –
[2], 318.15 K, x2 = 0.3636 | – | – | 1.5627 | –
[2], 328.15 K, x2 = 0.3636 | – | – | 1.5607 | –
[2], 338.15 K, x2 = 0.3636 | – | – | 1.5578 | –

C[P+](c1ccccc1)(c1ccccc1)c1ccccc1.[Br-] [methyltriphenylphosphonium bromide] + OCCO
Settings | electrical conductivity, [1] [S/m] | mass density, [1] [kg/m3] | refractive index, [2] | viscosity, [1] [mPa·s]
278.1 K, x1 = 0.2 | 0.0371 | – | – | 345
288.15 K, x1 = 0.2 | 0.055 | – | – | 186.1
288.15 K, x2 = 0.2 | – | – | 1.5622 | –
298.15 K, x1 = 0.2 | 0.0788 | 1232.6 | – | 109.8
308.15 K, x1 = 0.2 | 0.109 | 1225.6 | – | 68.6
308.15 K, x2 = 0.2 | – | – | 1.5542 | –
318.15 K, x1 = 0.2 | 0.144 | 1218.5 | – | 39.5
328.15 K, x1 = 0.2 | 0.188 | 1211.4 | – | 19.7
328.15 K, x2 = 0.2 | – | – | 1.5483 | –
338.15 K, x1 = 0.2 | 0.234 | 1204.3 | – | 5.4
338.15 K, x2 = 0.2 | – | – | 1.5446 | –
348.15 K, x1 = 0.2 | 0.285 | 1197.2 | – | 1.8
358.15 K, x1 = 0.2 | 0.338 | 1190 | – | –
368.15 K, x1 = 0.2 | 0.382 | – | – | –
